# Tested on: Erysiphe graminis f.sp. tritici
# Experiment: Erysiphe graminis f.sp. tritici (wheat powdery mildew) wheat leaf segment test, preventive
# Format: in vivo
# Conditions: Blumeria graminis, foliar, 96 h, wheat leaf segments, assessed four days after inoculation, read-out: control of fungal infection, Erysiphe graminis f.sp. tritici
row,SMILES,pest or weed control at 200 ppm [%]
1,"COC(Oc1cc(Br)c2ncc(Br)cc2c1)C(=O)NC(C)(C)C (stereo not drawn) [12 (99), N-tert-Butyl-2-(3,8-dibromo-quinolin-6-yloxy)-2-methoxy-acetamide]",≥ 60
2,"CCC(Oc1ccc2ncc(Br)cc2c1)C(=O)NC(C)(C)C (stereo not drawn) [12 (154), 2-(3-bromo-quinolin-6-yloxy)-N-tert-butyl-butyramide]",≥ 60
3,"COC(Oc1ccc2ncc(Br)cc2c1)C(=O)NC(C)(C)C (stereo not drawn) [12 (155), 2-(3-bromo-quinolin-6-yloxy)-N-tert-butyl-2-methoxy-acetamide]",≥ 60
4,"CCOC(Oc1ccc2ncc(Br)cc2c1)C(=O)NC(C)(C)C (stereo not drawn) [12 (156), 2-(3-Bromo-quinolin-6-yloxy)-N-tert-butyl-2-ethoxy-acetamide]",≥ 60
5,"CCC(Oc1cc(C)c2ncc(Br)cc2c1)C(=O)NC(C)(C)COC (stereo not drawn) [47 (90), 2-(3-Bromo-8-methyl-quinolin-6-yloxy)-N-(2-methoxy-1,1-dimethyl-ethyl)-butyramide]",≥ 60
6,"COCC(C)(C)NC(=O)C(OC)Oc1ccc2ncc(Br)cc2c1 (stereo not drawn) [47 (155), 2-(3-Bromo-quinolin-6-yloxy)-2-methoxy-N-(2-methoxy-1,1-dimethyl-ethyl)-acetamide]",≥ 60
7,"CCOC(Oc1ccc2ncc(Br)cc2c1)C(=O)NC(C)(C)COC (stereo not drawn) [47 (156), 2-(3-Bromo-quinolin-6-yloxy)-2-ethoxy-N-(2-methoxy-1,1-dimethyl-ethyl)-acetamide]",≥ 60
8,"CCC(Oc1ccc2ncc(Br)cc2c1)C(=O)NC(C)(C#N)COC (stereo not drawn) [52 (154), 2-(3-Bromo-quinolin-6-yloxy)-N-(1-cyano-2-methoxy-1-methyl-ethyl)-butyramide]",≥ 60
9,"COCC(C)(C#N)NC(=O)C(OC)Oc1ccc2ncc(Br)cc2c1 (stereo not drawn) [52 (155), 2-(3-Bromo-quinolin-6-yloxy)-N-(1-cyano-2-methoxy-1-methyl-ethyl)-2-methoxy-acetamide]",≥ 60

# From patent US20100113513A1, “QUINOLINE DERIVATIVES AS FUNGICIDES” (SYNGENTA CROP PROTECTION, INC., priority 2007, published 2010)
